# Laboratory results published in PubChem BioAssay AID278 (DTP/NCI, 2004).
# Several values for one entry are separate records, joined by “and”; a condition that tells them apart may be missing. Identical values can stand only once. Results filed as inconclusive are left out.
# System: nude mice, A549 intrarenal xenograft, tumor weight change
# Assay: NCI In Vivo Anticancer Drug Screen. Data for tumor model A549 Human Adenocarcinoma of Lung with characteristics of Type II Alveolar Epithelial cells (intrarenal inoculation) in NU/NU BALB/C (nude) mice
# Conditions: endpoint: mean tumor weight change, schedule: Q04DX003 (ip), higher = larger tumour
# In short: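 Mice bearing transplantable tumors were treated and survival or tumor size recorded. Values are given as treated-group measurement divided by vehicle-control measurement (T/C).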
# [1] = dose: 5.0 mg/kg/injection, vehicle: water
# [2] = dose: 10.0 mg/kg/injection, vehicle: water
# [3] = dose: 20.0 mg/kg/injection, vehicle: water
# [4] = dose: 25.0 mg/kg/injection, vehicle: water
# [5] = dose: 40.0 mg/kg/injection, vehicle: water
# [6] = dose: 50.0 mg/kg/injection, vehicle: water
# [7] = dose: 75.0 mg/kg/injection, vehicle: saline with Tween-80
# [8] = dose: 150.0 mg/kg/injection, vehicle: saline with Tween-80
# [9] = dose: 100.0 mg/kg/injection, vehicle: saline with Tween-80
# [10] = dose: 200.0 mg/kg/injection, vehicle: saline with Tween-80
# [11] = dose: 100.0 micrograms/kg/injection, vehicle: saline
# [12] = dose: 400.0 micrograms/kg/injection, vehicle: saline
# [13] = dose: 150.0 mg/kg/injection, vehicle: Klucel (hydroxypropylcellulose) (HPC)
# [14] = dose: 300.0 mg/kg/injection, vehicle: saline with Tween-80
compound,measurement,setting,value
O=NNc1ccc(Cl)cn1,T/C,[1],63 % of control
same,T/C,"dose: 6.25 mg/kg/injection, vehicle: water",113 % of control
same,T/C,[2],68 % of control
same,T/C,"dose: 12.5 mg/kg/injection, vehicle: water",62 % of control
same,T/C,[3],100 % of control
same,T/C,[4],61 % of control
same,T/C,[5],57 % of control
same,T/C,[6],26 % of control
O=C1CN(CO)C(=O)N1CO,T/C,"dose: 50.0 mg/kg/injection, vehicle: saline",172 % of control
same,T/C,"dose: 400.0 mg/kg/injection, vehicle: saline",120 % of control
COc1cccc(Sc2ccc([N+](=O)[O-])c3no[n+]([O-])c23)c1,T/C,[7],49 % of control
same,T/C,[8],86 % of control
CC(=O)c1cccc(NC2C(N)C(NC(=O)N(C)C)(C(C)O)C(C)(O)C2(O)COC(=O)c2c(C)cccc2O)c1 (configuration not stated),T/C,"dose: 6.25 mg/kg/injection, vehicle: suspension in saline",183 % of control
same,T/C,"dose: 12.5 mg/kg/injection, vehicle: suspension in saline",121 % of control
same,T/C,"dose: 25.0 mg/kg/injection, vehicle: suspension in saline",120 % of control
same,T/C,"dose: 50.0 mg/kg/injection, vehicle: suspension in saline",68 % of control
CCC(=O)[O][Bi]([c]1ccccc1)[c]1ccccc1,T/C,"dose: 6.25 mg/kg/injection, vehicle: Klucel (hydroxypropylcellulose) (HPC)",79 % of control
same,T/C,"dose: 12.5 mg/kg/injection, vehicle: Klucel (hydroxypropylcellulose) (HPC)",49 % of control
same,T/C,"dose: 25.0 mg/kg/injection, vehicle: Klucel (hydroxypropylcellulose) (HPC)",43 % of control
O=NNc1cccnc1,T/C,[6],56 % of control and 75 % of control
same,T/C,"dose: 100.0 mg/kg/injection, vehicle: water",80 % of control
COc1ccc2oc3c(ccc[n+]3C)c(=O)c2c1,T/C,[9],57 % of control
same,T/C,[10],38 % of control
same,T/C,"dose: 400.0 mg/kg/injection, vehicle: saline with Tween-80",32 % of control
COc1ccc(C[C@@H]2NC[C@@H](O)[C@@H]2OC(C)=O)cc1,T/C,"dose: 37.5 mg/kg/injection, vehicle: saline with Tween-80",87 % of control
same,T/C,[7],48 % of control
same,T/C,[8],86 % of control
O=C1C=C(N2CC2)C(=O)C(N2CC2)=C1N1CC1,T/C,[11],25 % of control and 29 % of control
same,T/C,"dose: 144.0 micrograms/kg/injection, vehicle: saline + alcohol",-27 % of control
same,T/C,"dose: 240.0 micrograms/kg/injection, vehicle: saline + alcohol",-14 % of control
same,T/C,[12],6 % of control
O=C(NC(Cc1ccc(I)cc1)C(=O)O)c1cccc(Br)c1 (configuration not stated),T/C,"dose: 100.0 mg/kg/injection, vehicle: Klucel (hydroxypropylcellulose) (HPC)",99 % of control
same,T/C,[13],35 % of control
same,T/C,"dose: 200.0 mg/kg/injection, vehicle: Klucel (hydroxypropylcellulose) (HPC)",45 % of control
same,T/C,"dose: 300.0 mg/kg/injection, vehicle: Klucel (hydroxypropylcellulose) (HPC)",35 % of control
CCCCCC[Se][Se]CCCCCC,T/C,"dose: 10.0 mg/kg/injection, vehicle: Klucel (hydroxypropylcellulose) (HPC)",106 % of control
same,T/C,"dose: 20.0 mg/kg/injection, vehicle: Klucel (hydroxypropylcellulose) (HPC)",38 % of control
same,T/C,"dose: 40.0 mg/kg/injection, vehicle: Klucel (hydroxypropylcellulose) (HPC)",70 % of control
same,T/C,"dose: 80.0 mg/kg/injection, vehicle: Klucel (hydroxypropylcellulose) (HPC)",71 % of control
CNC(=O)/C=C/C1=CN2C(=O)c3ccc(C)c(O)c3NC(OC)C2C1 (configuration not stated),T/C,[11],1 % of control
same,T/C,"dose: 200.0 micrograms/kg/injection, vehicle: saline",20 % of control
same,T/C,[12],29 % of control
same,T/C,"dose: 800.0 micrograms/kg/injection, vehicle: saline",-17 % of control
CCOc1cc2c(cc1C(C)c1ccc(OC)cc1)OCO2 (configuration not stated),T/C,"dose: 54.0 mg/kg/injection, vehicle: distilled water + alcohol",67 % of control
same,T/C,"dose: 90.0 mg/kg/injection, vehicle: distilled water + alcohol",48 % of control
same,T/C,"dose: 250.0 mg/kg/injection, vehicle: distilled water + alcohol",4 % of control
Cc1nc2c(N)cc(Cl)cc2[nH]1,T/C,[9],89 % of control
same,T/C,[10],95 % of control
Cc1ccc(C2=CSC3=NCCN23)cc1Cl,T/C,"dose: 2.5 mg/kg/injection, vehicle: suspension in saline",88 % of control
same,T/C,"dose: 5.0 mg/kg/injection, vehicle: saline",119 % of control
same,T/C,"dose: 5.0 mg/kg/injection, vehicle: suspension in saline",60 % of control
same,T/C,"dose: 10.0 mg/kg/injection, vehicle: suspension in saline",44 % of control
same,T/C,"dose: 20.0 mg/kg/injection, vehicle: saline",104 % of control
same,T/C,"dose: 20.0 mg/kg/injection, vehicle: suspension in saline",102 % of control
same,T/C,"dose: 40.0 mg/kg/injection, vehicle: saline",26 % of control
CN(C)C(=O)Nc1ccc(Cl)cc1,T/C,"dose: 150.0 mg/kg/injection, vehicle: suspension in saline",120 % of control
same,T/C,"dose: 300.0 mg/kg/injection, vehicle: suspension in saline",74 % of control
same,T/C,"dose: 600.0 mg/kg/injection, vehicle: suspension in saline",112 % of control
CN=C(N)N/N=C(\C)c1ccc2sc3ccc(/C(C)=N/NC(N)=NC)cc3c2c1,T/C,[7],118 % of control
same,T/C,[8],95 % of control
same,T/C,[14],83 % of control
Cc1ccc(NN=O)nc1,T/C,[1],79 % of control
same,T/C,[2],81 % of control
same,T/C,[3],61 % of control
same,T/C,[5],33 % of control
O=S(=O)(c1cccc(N=C=S)c1)c1cccc(N=C=S)c1,T/C,"dose: 30.0 mg/kg/injection, vehicle: Klucel (hydroxypropylcellulose) (HPC)",67 % of control
CCCCCNc1ncnc2c(C)[nH]nc12,T/C,"dose: 37.5 mg/kg/injection, vehicle: Klucel (hydroxypropylcellulose) (HPC)",82 % of control
same,T/C,"dose: 75.0 mg/kg/injection, vehicle: Klucel (hydroxypropylcellulose) (HPC)",105 % of control
same,T/C,[13],100 % of control
CCN(CC)CC(C)(C)C(=O)/C=C/c1ccc(/C=C/C(=O)C(C)(C)CN(CC)CC)cc1,T/C,"dose: 15.0 mg/kg/injection, vehicle: saline",84 % of control
same,T/C,"dose: 30.0 mg/kg/injection, vehicle: saline",73 % of control
same,T/C,"dose: 60.0 mg/kg/injection, vehicle: saline",82 % of control
Nc1ncnc2c1nc(Cl)n2C1OC2COP(=O)(O)OC2C1O (configuration not stated),T/C,[4],198 % of control
same,T/C,[6],85 % of control
CC1C(c2ccccc2)OC(N2CCOCC2)C(C)(C)CN1C (configuration not stated),T/C,[8],112 % of control
same,T/C,[14],72 % of control
CC[C@]1(O)C[C@H]2CN(CCc3c([nH]c4ccccc34)[C@@](C(=O)OC)(c3cc4c(cc3OC)N(C)[C@H]3[C@@](O)(C(=O)OC)[C@H](OC(C)=O)[C@]5(CC)C=CCN6CC[C@]43[C@@H]65)C2)C1,T/C,"dose: 0.67 mg/kg/injection, vehicle: Klucel (hydroxypropylcellulose) (HPC)",-2 % of control
same,T/C,"dose: 1.0 mg/kg/injection, vehicle: Klucel (hydroxypropylcellulose) (HPC)",-49 % of control
c1cc2c(c(CC3CO3)c1CC1CO1)OCCOCCOCCOCCO2 (configuration not stated),T/C,"dose: 62.5 mg/kg/injection, vehicle: saline + alcohol",74 % of control
same,T/C,"dose: 125.0 mg/kg/injection, vehicle: saline + alcohol",98 % of control
same,T/C,"dose: 250.0 mg/kg/injection, vehicle: saline + alcohol",64 % of control
same,T/C,"dose: 375.0 mg/kg/injection, vehicle: saline + alcohol",75 % of control
